Data as given in patent US10472352B2, “Rac inhibitors” (Geneyus LLC, priority 2017, dated 2019).
Like-named read-outs stand apart in the source and are kept apart here.

Tested on: BT474 breast cancer cells
Experiment: BT474 Four (4) Day Cell Viability Assay
Type: cell-based
Conditions: Homo sapiens, BT-474, 96 h, BT474, 4 days, read-out: cellular viability; for viability at 7.5 µM: 32661 7.5 μM
Procedure: BT474 breast cancer cells that are Estrogen Receptor Positive and HER2+ were grown in 5% cFBS. 5,000 cells were seeded into each well of a 96-well plate and treated with escalating doses of lapatinib, fulvestrant, and 32661.

FC(F)(F)c1ccc2c(SCCCCCCn3cnc(CN4CCOCC4)c3)ccnc2c1 [Compound 0032661, 4-[[1-[6-[[7-(trifluoromethyl)-4-quinolyl]sulfanyl]hexyl]imidazol-4-yl]methyl]morpholine]
viability at 5 µM (32661 5 μM, fulvestrant 3333.0 nM, lapatinib 3333.0 nM): 1% | viability at 7.5 µM (fulvestrant 0.0 nM, lapatinib 0.0 nM): 84% | viability at 7.5 µM (fulvestrant 0.0 nM, lapatinib 6.9 nM): 76% | viability at 7.5 µM (fulvestrant 0.0 nM, lapatinib 20.6 nM): 74% | viability at 7.5 µM (fulvestrant 0.0 nM, lapatinib 61.7 nM): 65% | viability at 7.5 µM (fulvestrant 0.0 nM, lapatinib 185.2 nM): 50% | viability at 7.5 µM (fulvestrant 0.0 nM, lapatinib 555.6 nM): 30% | viability at 7.5 µM (fulvestrant 0.0 nM, lapatinib 1666.7 nM): 14% | viability at 7.5 µM (fulvestrant 0.0 nM, lapatinib 3333.0 nM): 12% | viability at 7.5 µM (fulvestrant 6.9 nM, lapatinib 0.0 nM): 81% | viability at 7.5 µM (fulvestrant 6.9 nM, lapatinib 6.9 nM): 72% | viability at 7.5 µM (fulvestrant 6.9 nM, lapatinib 20.6 nM): 71% | viability at 7.5 µM (fulvestrant 6.9 nM, lapatinib 61.7 nM): 64% | viability at 7.5 µM (fulvestrant 6.9 nM, lapatinib 185.2 nM): 52% | viability at 7.5 µM (fulvestrant 6.9 nM, lapatinib 555.6 nM): 27% | viability at 7.5 µM (fulvestrant 6.9 nM, lapatinib 1666.7 nM): 12% | viability at 7.5 µM (fulvestrant 6.9 nM, lapatinib 3333.0 nM): 9% | viability at 7.5 µM (fulvestrant 20.6 nM, lapatinib 0.0 nM): 75% | viability at 7.5 µM (fulvestrant 20.6 nM, lapatinib 6.9 nM): 73% | viability at 7.5 µM (fulvestrant 20.6 nM, lapatinib 20.6 nM): 67% | viability at 7.5 µM (fulvestrant 20.6 nM, lapatinib 61.7 nM): 62% | viability at 7.5 µM (fulvestrant 20.6 nM, lapatinib 185.2 nM): 50% | viability at 7.5 µM (fulvestrant 20.6 nM, lapatinib 555.6 nM): 23% | viability at 7.5 µM (fulvestrant 20.6 nM, lapatinib 1666.7 nM): 12% | viability at 7.5 µM (fulvestrant 20.6 nM, lapatinib 3333.0 nM): 4% | viability at 7.5 µM (fulvestrant 61.7 nM, lapatinib 0.0 nM): 76% | viability at 7.5 µM (fulvestrant 61.7 nM, lapatinib 6.9 nM): 66% | viability at 7.5 µM (fulvestrant 61.7 nM, lapatinib 20.6 nM): 61% | viability at 7.5 µM (fulvestrant 61.7 nM, lapatinib 61.7 nM): 58% | viability at 7.5 µM (fulvestrant 61.7 nM, lapatinib 185.2 nM): 52% | viability at 7.5 µM (fulvestrant 61.7 nM, lapatinib 555.6 nM): 24% | viability at 7.5 µM (fulvestrant 61.7 nM, lapatinib 1666.7 nM): 12% | viability at 7.5 µM (fulvestrant 61.7 nM, lapatinib 3333.0 nM): 4% | viability at 7.5 µM (fulvestrant 185.2 nM, lapatinib 0.0 nM): 74% | viability at 7.5 µM (fulvestrant 185.2 nM, lapatinib 6.9 nM): 64% | viability at 7.5 µM (fulvestrant 185.2 nM, lapatinib 20.6 nM): 61% | viability at 7.5 µM (fulvestrant 185.2 nM, lapatinib 61.7 nM): 54% | viability at 7.5 µM (fulvestrant 185.2 nM, lapatinib 185.2 nM): 48% | viability at 7.5 µM (fulvestrant 185.2 nM, lapatinib 555.6 nM): 24% | viability at 7.5 µM (fulvestrant 185.2 nM, lapatinib 1666.7 nM): 10% | viability at 7.5 µM (fulvestrant 185.2 nM, lapatinib 3333.0 nM): 5% | viability at 7.5 µM (fulvestrant 555.6 nM, lapatinib 0.0 nM): 76% | viability at 7.5 µM (fulvestrant 555.6 nM, lapatinib 6.9 nM): 59% | viability at 7.5 µM (fulvestrant 555.6 nM, lapatinib 20.6 nM): 52% | viability at 7.5 µM (fulvestrant 555.6 nM, lapatinib 61.7 nM): 45% | viability at 7.5 µM (fulvestrant 555.6 nM, lapatinib 185.2 nM): 38% | viability at 7.5 µM (fulvestrant 555.6 nM, lapatinib 555.6 nM): 19% | viability at 7.5 µM (fulvestrant 555.6 nM, lapatinib 1666.7 nM): 3% | viability at 7.5 µM (fulvestrant 555.6 nM, lapatinib 3333.0 nM): 1% | viability at 7.5 µM (fulvestrant 1666.7 nM, lapatinib 0.0 nM): 69% | viability at 7.5 µM (fulvestrant 1666.7 nM, lapatinib 6.9 nM): 35% | viability at 7.5 µM (fulvestrant 1666.7 nM, lapatinib 20.6 nM): 28% | viability at 7.5 µM (fulvestrant 1666.7 nM, lapatinib 61.7 nM): 25% | viability at 7.5 µM (fulvestrant 1666.7 nM, lapatinib 185.2 nM): 21% | viability at 7.5 µM (fulvestrant 1666.7 nM, lapatinib 555.6 nM): 12% | viability at 7.5 µM (fulvestrant 1666.7 nM, lapatinib 1666.7 nM): 2% | viability at 7.5 µM (fulvestrant 1666.7 nM, lapatinib 3333.0 nM): 0% | viability at 7.5 µM (fulvestrant 3333.0 nM, lapatinib 0.0 nM): 49% | viability at 7.5 µM (fulvestrant 3333.0 nM, lapatinib 6.9 nM): 16% | viability at 7.5 µM (fulvestrant 3333.0 nM, lapatinib 20.6 nM): 13% | viability at 7.5 µM (fulvestrant 3333.0 nM, lapatinib 61.7 nM): 11% | viability at 7.5 µM (fulvestrant 3333.0 nM, lapatinib 185.2 nM): 7% | viability at 7.5 µM (fulvestrant 3333.0 nM, lapatinib 555.6 nM): 2% | viability at 7.5 µM (fulvestrant 3333.0 nM, lapatinib 1666.7 nM): 3%
